In PubChem BioAssay AID1996:
≈ marks a conversion by molar mass, not a printed value.

conditions: buffer; pH 7.4; 200.0 µM

SMILES	solubility kinetic [µg/mL]
O=C1NC2=C(C(=O)CCC2)C(c2ccc([N+](=O)[O-])cc2)N1 (centres undefined)	> 43.1
CSc1ccc(S(=O)(=O)NC2CC3CCC2C3)cc1 (centres undefined)	29.7 (≈ 99.9 µM)
O=C(NC1CCCC1)c1cc(-c2ccc(Cl)cc2)on1	< 0.3
COc1cc(OC)c(C2CC(=O)N3CN(C)CSC3=C2C#N)cc1OC (centres undefined)	43.3 (≈ 115 µM)
[Cl-].c1ccc(CNc2cccc[nH+]2)cc1	> 33.1
CC(C)C1Oc2ccccc2N(CC(=O)NC2CCCCC2)C1=O (centres undefined)	> 49.6
O=c1cc(O)c2sc(Nc3cccc(C(F)(F)F)c3)nc2[nH]1	36.9 (≈ 113 µM)
CC(=O)Nc1ccc(NC(=O)c2cc(-n3cnnc3)ccc2Cl)cc1	> 53.4
CO/N=C/C(NC(=O)c1ccc(C(F)(F)F)cc1)C(=O)OC (centres undefined)	> 47.7
Cc1csc(NC(=O)CS(=O)(=O)c2ccccc2)n1	44.3 (≈ 149 µM)
CC(=O)c1ccc2noc(-c3cccc(F)c3)c2c1	6.5 (≈ 25.5 µM)
CCn1c(=O)c([N+](=O)[O-])c(Cl)c2ccccc21	3.3 (≈ 13.1 µM)
Cc1ccc(C(=O)OCC(=O)NC(C)c2ccccc2)cc1C (centres undefined)	1.1 (≈ 3.53 µM)
C/C(=N/NC(=O)CN1CCN(Cc2ccccc2Cl)CC1)c1cccnc1	> 57.9
Cc1ccc(S(=O)(=O)N2CCCCC2C(=O)Nc2ccc(N(C)C)cc2)cc1 (centres undefined)	5.7 (≈ 14.2 µM)
CCOC(=O)CNc1ccc(OC(F)(F)F)cc1	7.2 (≈ 27.4 µM)
Cc1cc(N2CCN(C)CC2)nc(-c2ccccc2O)n1	> 42.7
O=C(O)C1C2C=CC(C2)C1C(=O)NCc1cccc(Cl)c1 (centres undefined)	43.3 (≈ 142 µM)
Nc1ccccc1C(=O)Nc1cccc2ccccc12	24.7 (≈ 94.2 µM)
COc1ccccc1CNC(=O)CN1C(=O)NC(c2ccccc2)(c2ccccc2)C1=O	3.1 (≈ 7.22 µM)
CC1CCN(C(=O)c2cc3c(ccc4ccccc43)o2)CC1	< 0.6
CC1CCc2c(sc(NC(=O)/C=C/c3cccs3)c2C(=O)O)C1 (centres undefined)	> 52.1
CCOc1ccc(C(CC(=O)O)NC(=O)Cc2ccc(Cl)cc2)cc1 (centres undefined)	> 54.3
CC(=O)C1=C(O)C(=O)N(CCO)C1c1ccccc1 (centres undefined)	> 39.2

SMILES	solubility kinetic [µg/mL]
CCN1CCN(C(=O)C23CCC(C)(C(=O)C2Br)C3(C)C)CC1 (centres undefined)	> 55.7
COC(=O)C(Cc1ccccc1)N1CCS(=O)(=O)CC1 (centres undefined)	> 44.6
CCn1c(O)c(C=NCCN2CCOCC2)c(=O)n(CC)c1=S	> 51.1
O=c1c(Cc2ccc(F)cc2)c(O)ccn1CCc1ccccn1	> 48.7
Cc1cccc(C2=NOC(=O)/C2=C\c2ccccc2F)c1	6.5 (≈ 23.1 µM)
CCc1noc(C)c1C(=O)N(CCOC)c1c(N)n(CC(C)C)c(=O)[nH]c1=O	55.6 (≈ 141 µM)
COc1cc(C)cc(CN2CC=C(c3ccccc3)CC2)c1O	12.8 (≈ 41.4 µM)
O=C(Nc1ccc(F)cc1)c1ccc(CSc2ccc(Cl)cc2)o1	4.3 (≈ 11.9 µM)
CC(CC(=O)O)CC(=O)Nc1ccc(Br)cc1 (centres undefined)	> 45
N[C@@H](Cc1ccc(O)cc1)C(=O)Nc1ccc2ccccc2c1	> 46
COc1ccc(Cl)cc1NC(=O)NCc1ccc2c(c1)OCO2	< 0.4
O=C1CSC(c2cccnc2)N1CC1CC1 (centres undefined)	> 35.1
Cc1nccn1Cc1ccc(Cl)nc1	> 31.1
O=C(NCC1CCCO1)c1csc(Nc2cccc3ccccc23)n1 (centres undefined)	28.5 (≈ 80.6 µM)
O=C(COC(=O)c1cccs1)Nc1ccc(F)c(F)c1	24.9 (≈ 83.8 µM)
COC(=O)Cc1c(O)ccn(CCc2ccccc2)c1=O	> 43.1
CCOc1ccc(N/C(N)=N/c2nc(C)c(C)c(=O)[nH]2)cc1	2.3 (≈ 7.63 µM)
CCOC(=O)N1CCN(S(=O)(=O)c2ccc([N+](=O)[O-])cc2)CC1	36.9 (≈ 107 µM)
O=C(Nc1ccccc1)c1cn(CCBr)cn1	> 44.1
Cc1cccc(C(=O)N[C@H](C(=O)Nc2ccc(C)c(S(=O)(=O)N3CCOCC3)c2)C(C)C)c1	5.4 (≈ 11.4 µM)
Cl.ClC(CCN1CCN(Cc2ccccc2)CC1)c1ccccc1 (centres undefined)	> 60.3
O=S(=O)(NC1=NCCC1)c1cccc(NC(=S)Nc2ccc(OC(F)F)cc2)c1	> 66.1
COc1cccc(NC(=O)CSc2cccc[n+]2[O-])c1	> 43.6
CCC(CC)NC(=O)Cn1c(C(C)NC(C)=O)nc2ccccc21 (centres undefined)	41.3 (≈ 125 µM)

SMILES	solubility kinetic [µg/mL]
O=C(Nc1nc(-c2ccccc2)cs1)c1ccco1	22.3 (≈ 82.5 µM)
Cn1c(N)cc(-c2ccc(F)cc2)c(C#N)c1=O	> 36.5
N#Cc1ccc(C(=O)NCC2CCCCC2)cc1	19.9 (≈ 82.1 µM)
O=C(Nc1ccccc1F)c1cc(Cl)sc1Cl	5.2 (≈ 17.9 µM)
O=C(COc1cccnc1[N+](=O)[O-])NCc1cccs1	> 44
Cc1ccccc1NC(=O)N1CCC(C(=O)c2ccc(F)cc2)CC1	33.4 (≈ 98.1 µM)
Cn1c(/C(C#N)=C(\O)c2cccc(F)c2)nc2ccccc21	0.3 (≈ 1.02 µM)
COP(=O)(NS(=O)(=O)c1ccccc1)OC	33.9 (≈ 128 µM)
CN(C)c1cccc(C(=O)OCC(=O)N(C)c2ccccc2)c1	> 46.9
C/C(=N\OC(=O)c1ccccc1)c1c(C)nc2cc(C)ccn12	44.7 (≈ 145 µM)
O=C(Nc1ccc2[nH]ccc2c1)c1ccccc1	31.9 (≈ 135 µM)
Cc1nc2ccccc2n1Cc1ccccc1Br	26 (≈ 86.3 µM)
Cc1ccc(C(=O)C[n+]2ccccc2C)cc1[N+](=O)[O-].[Br-]	48.3
O=C(O)c1ccc(CNC(=O)c2ccc(C(F)(F)F)cc2)cc1	> 48.5
C=Cn1ccnc1P(=S)(c1ccc(Cl)cc1)c1nccn1C=C	46.9 (≈ 130 µM)
CCOC(=O)C1CCN(C(=O)COC(=O)C23CC4CC(CC(C4)C2)C3)CC1	50.7 (≈ 134 µM)
C/C(=N\OC(=O)Nc1ccccc1)c1ccc(C)cc1	15 (≈ 55.9 µM)
CCc1nc2ccc(C(=O)N(C)CC(=O)Nc3ccccc3C(F)(F)F)cc2nc1CC	27.6 (≈ 62.1 µM)
c1csc(-c2nc(N3CCCCC3)no2)c1	3.8 (≈ 16.1 µM)
CSCC[C@H](NC(=O)c1ccco1)c1nnc2ccccn12	> 47.5
CC(C)(C)c1csc(NC(=O)c2c(F)c(F)c(F)c(F)c2F)n1	21.3 (≈ 60.8 µM)
Cc1ccsc1/C=C(\CC(=O)O)c1nc2ccccc2o1	> 44.9
CC(C)(Oc1ccc(Cl)cc1)C(=O)NC1CCCCC1	3.9 (≈ 13.2 µM)
Cc1ccc(S(=O)(=O)N2CCN(C(=O)Cn3c(=O)cnc4ccccc43)CC2)c(C)c1	> 66.1

SMILES	solubility kinetic [µg/mL]
Cc1ccc(-c2c(C(=O)O)c3ccccc3[nH]c2=O)cc1	> 41.9
S=C(NCCN1CCOCC1)NC1CCCCC1	38.5 (≈ 142 µM)
Cc1cnc(NC(=O)c2ccc(-c3ccc([N+](=O)[O-])cc3)o2)s1	1.9 (≈ 5.77 µM)
COc1ccc(NS(=O)(=O)c2cc(NC(=O)COc3ccc(OC)cc3)ccc2N2CCOCC2)cc1	3.4 (≈ 6.44 µM)
CCCC(=O)C1=C(O)C(C(=O)OC)C(C)(C)CC1=NCCc1ccccc1 (centres undefined)	53.4 (≈ 144 µM)
C=CCSc1nc(C)c(CC(=C)C)c(=O)[nH]1	32.2 (≈ 136 µM)
Cc1ccnc(NC(=O)c2cccc3ccccc23)c1	6.1 (≈ 23.3 µM)
CN(c1ccccc1)c1nc(N)c([N+](=O)[O-])c(NC2CCCCC2)n1	< 0.1
CSCCC(NS(=O)(=O)c1ccccc1F)C(=O)NCC(c1ccco1)N(C)C (centres undefined)	> 66.5
COc1ccc(C(=O)NCCNc2ccc([N+](=O)[O-])cc2)cc1	5 (≈ 15.9 µM)
Cn1c(-c2ccccc2)c(C=O)c2ccccc21	19.5 (≈ 82.9 µM)
O=C(CC12CC3CC(CC(C3)C1)C2)NCc1ccccc1	0.6 (≈ 2.12 µM)
CCc1noc(C)c1C(=O)Nc1nc(-c2ccccc2)cs1	5 (≈ 16 µM)
Cc1cc(C(F)(F)F)c2c(N)c(C(=O)NC3CC3)sc2n1	> 47.3
Cc1ccccc1NC(=O)Cc1nc(COC(=O)c2ccc(NC(N)=O)cc2)cs1	17.6 (≈ 41.5 µM)
Cn1c(=O)c2c(nc3n2CC(O)CN3c2ccccc2)n(C)c1=O (centres undefined)	> 49.1
Cc1c(C(=O)Nc2ccccn2)sc2nc3n(c(=O)c12)CCC3	32.9 (≈ 101 µM)
COc1ccc(N2C(=O)C3CCCN3C2=S)cc1 (centres undefined)	> 39.3
O=C(Cc1ccc(Cl)cc1)NNC(=O)C1CC=CCC1C(=O)O (centres undefined)	> 50.5
Cc1cccc(C(=O)N=c2sccn2C)c1[N+](=O)[O-]	17.3 (≈ 62.4 µM)
Cn1c(=O)c2c([nH]c(=O)n2C)n(Cc2ccccc2)c1=O	> 42.9
Cc1ccc(CNC2CCCCC2)s1.Cl	> 36.9
NC(=O)c1oc2ccccc2c1NC(=O)C1COc2ccccc2O1 (centres undefined)	< 0.4
O=[N+]([O-])c1ccc(N2CCN(c3ccccc3Cl)CC2)cn1	2 (≈ 6.27 µM)

SMILES	solubility kinetic [µg/mL]
O=C(C1CCCCC1)N1CCc2ccccc21	27.2 (≈ 119 µM)
Cc1cccc(-c2noc(CN(C)C(=O)c3ccco3)n2)c1	> 44.6
C=CCn1c(C)nnc1SCC(=O)NC1CCCCC1	> 44.2
COc1ccc(CCNc2ccc(S(N)(=O)=O)cn2)cc1	42.8 (≈ 139 µM)
O=C(Nc1cccnc1Cl)c1ccc(Cl)cc1	35 (≈ 131 µM)
O=C(CCCC(=O)c1ccccc1)NCCc1ccccc1F	44.1 (≈ 141 µM)
O=C(Cc1ccccc1)O/N=C1\CCCc2ccccc21	17.1 (≈ 61.2 µM)
CSc1nsc(SCC(=O)N2CCCCC2)n1	> 43.4
CC(C)CCNC(=O)Cc1csc(-c2ccccc2)n1	41.4 (≈ 144 µM)
CN1CCOCCOCCOCCN(C)C1=S	> 39.4
O=C(CSc1ncccn1)N1CCCc2ccccc21	> 42.8
CC(=O)N1CCN(c2ccc(NC(=O)c3ccccc3C)cc2)CC1	36.8 (≈ 109 µM)
COc1ccc(NC(=O)CNC(=O)Cc2cccc3ccccc23)cc1	4.3 (≈ 12.3 µM)
CC(C)CNC(=O)CCc1nc(-c2ccccc2)no1	37.7 (≈ 138 µM)
Cc1ccc(SCC(=O)NCCCc2ccccc2)cc1	5.7 (≈ 19 µM)
Cc1cc(C)c(S(=O)(=O)Nc2cnc3ccccc3c2)c(C)c1	19.2 (≈ 58.8 µM)
Cc1[nH]c(=O)c(C#N)c(C)c1[N+](=O)[O-]	27.3 (≈ 141 µM)
CCCCCCC(=O)Nc1ccc(Br)cn1	1.6 (≈ 5.61 µM)
Cc1nc([N+](=O)[O-])c(N2CCOCC2)n1Cc1ccccc1	44.7 (≈ 148 µM)
S=c1[nH]c2ccccc2n1CCOc1ccccc1	20.2 (≈ 74.7 µM)
Cn1ccnc1SCC(=O)Nc1cccc([N+](=O)[O-])c1	42.4 (≈ 145 µM)
O=C(O)c1c2c(nc3ccc(Cl)cc13)CCC2	32.1 (≈ 130 µM)
CCN(C(=O)COC(=O)c1cc2c(s1)CCCC2)c1c(N)n(Cc2ccccc2)c(=O)[nH]c1=O	3.3 (≈ 6.84 µM)
